Experimental data taken from EPA's ToxValDB 9.5 (doi:10.2903/j.efsa.2018.5467).
Values after ≈ are worked out from the molar mass of the structure shown.

Experiments:
Colinus virginianus = settings: for LD50: acute, oral, mortality
Apis mellifera = settings: acute, mortality
Tagia sp. = settings: chronic/long-term; duration: 56 days; reproduction
Daphnia magna = settings: chronic/long-term; duration: 21 days; other
Typhlodromus pyri [1] = settings: chronic/long-term; reproduction
Bibionidae = settings: chronic/long-term; duration: 28 days; other
Typhlodromus pyri [2] = assay: LR50; higher = less toxic; settings: acute; mortality

In the case of C#CCOC(=O)[C@@H](C)Oc1ccc(Oc2ncc(Cl)cc2F)cc1 [Clodinafop-propargyl], the LD50 (Colinus virginianus; duration: 5 days, diet) is reported as > 1040 mg/kg-day, the LD50 (Colinus virginianus) is reported as 1460 mg/kg-day and the NOEC (Colinus virginianus; reproduction developmental) is reported as 48.9 mg/kg-day. The LD50 (Apis mellifera; dermal) was > 271 µg/piece, the LD50 (Apis mellifera; oral, unspecified) was > 104 µg/piece and the LD50 (Rattus norvegicus; acute, oral, mortality) was > 1390 mg/kg-day. For the same molecule, the NOAEL (Rattus norvegicus; chronic, duration: 2 years, clinical chemistry) was 0.03 mg/kg-day, the NOAEL (Rattus norvegicus; developmental, development) was 5 mg/kg-day and the NOAEL (Rattus norvegicus; reproduction developmental, body weight) was 3.4 mg/kg-day. It also gave an NOEC (Tagia sp.) of 5 mg/kg, an NOEC (Daphnia magna) of 0.23 mg/L and an LC50 (Lepomis macrochirus; acute, duration: 96 hours, mortality) of 0.21 µg/mL (≈ 0.6 µM). For the same molecule, the NOEC (Lepomis macrochirus; chronic/long-term, duration: 33 days, other) was 0.024 mg/L, the NOEC (Typhlodromus pyri [1]) was 90 g/ha and the NOEC (Bibionidae) was 1.2 mg/L. For the same molecule, the LR50 (Typhlodromus pyri [2]) was > 90 g/ha.
